# In patent US10723724B2, “Compounds for treating degenerative diseases of central nervous system or brain tumor, and uses thereof” (SUN YAT-SEN UNIVERSITY, priority 2016, dated 2020):
# Columns and labels:
# TLK1 = target: T1, TLK1 (Homo sapiens, UniProt Q9UKI8); assay: Kinase screening service: TLK1; type: biochemical; conditions: average of duplicates
# T1 construct: purchased Life Technologies Corporation (Kinase Screening Service)
# Protocol: (§1) The inhibitory effect of PT109 on other kinases including SGK and JNK was detected by the Kinase Screening Service of Life Technologies Corporation (The concentration of compound 9 was 10 μM, measurements were performed in duplicates, and the value was represented by an average) to investigate the selectivity of the compound for JNK and SGK1.
# CDK5/p35 = target: T2, CDK5/p35 (Homo sapiens, UniProt Q00535); assay: Kinase screening service: CDK5/p35; type: biochemical; conditions: average of duplicates
# T2 construct: purchased Life Technologies Corporation (Kinase Screening Service)
# Protocol: as §1
# PRKCI (PKC iota) = target: T3, PRKCI (PKC iota) (Homo sapiens, UniProt P41743); assay: Kinase screening service: PRKCI; type: biochemical; conditions: average of duplicates
# T3 construct: purchased Life Technologies Corporation (Kinase Screening Service)
# Protocol: as §1
# PI4KB (PI4K beta) = target: T4, PI4KB (PI4K beta) (Homo sapiens, UniProt Q9UBF8); assay: Kinase screening service: PI4KB; type: biochemical; conditions: average of duplicates
# T4 construct: purchased Life Technologies Corporation (Kinase Screening Service)
# T4 sequence (Q9UBF8 whole entry): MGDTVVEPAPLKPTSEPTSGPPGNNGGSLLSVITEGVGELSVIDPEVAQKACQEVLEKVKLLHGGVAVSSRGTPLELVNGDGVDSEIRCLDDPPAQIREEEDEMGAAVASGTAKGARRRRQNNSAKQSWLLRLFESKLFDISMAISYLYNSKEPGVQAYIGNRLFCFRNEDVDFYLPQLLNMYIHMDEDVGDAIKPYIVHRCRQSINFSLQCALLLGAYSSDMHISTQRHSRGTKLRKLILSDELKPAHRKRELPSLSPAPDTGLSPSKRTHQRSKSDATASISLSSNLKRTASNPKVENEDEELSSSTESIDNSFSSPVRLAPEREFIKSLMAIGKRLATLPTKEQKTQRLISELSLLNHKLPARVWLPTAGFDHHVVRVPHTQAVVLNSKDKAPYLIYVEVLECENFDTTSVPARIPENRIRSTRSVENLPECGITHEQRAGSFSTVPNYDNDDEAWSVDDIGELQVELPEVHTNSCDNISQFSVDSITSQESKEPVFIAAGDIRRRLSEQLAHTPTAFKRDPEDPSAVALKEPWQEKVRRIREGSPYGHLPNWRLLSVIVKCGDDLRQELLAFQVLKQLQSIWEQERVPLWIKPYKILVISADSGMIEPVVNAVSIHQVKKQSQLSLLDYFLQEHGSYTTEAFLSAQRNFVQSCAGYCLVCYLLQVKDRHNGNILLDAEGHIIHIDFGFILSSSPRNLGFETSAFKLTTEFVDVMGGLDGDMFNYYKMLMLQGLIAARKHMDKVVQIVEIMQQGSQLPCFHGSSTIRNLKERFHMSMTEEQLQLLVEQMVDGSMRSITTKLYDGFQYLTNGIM
# Protocol: as §1
# HIPK1 (Myak) = target: T5, HIPK1 (Myak) (Homo sapiens, UniProt Q86Z02); assay: Kinase screening service: HIPK1; type: biochemical; conditions: average of duplicates
# T5 construct: purchased Life Technologies Corporation (Kinase Screening Service)
# Protocol: as §1
# CSNK1D (CK1 delta) = target: T6, CSNK1D (CK1 delta) (Homo sapiens, UniProt P48730); assay: Kinase screening service: CSNK1D; type: biochemical; conditions: average of duplicates
# T6 construct: purchased Life Technologies Corporation (Kinase Screening Service)
# T6 sequence (P48730 whole entry): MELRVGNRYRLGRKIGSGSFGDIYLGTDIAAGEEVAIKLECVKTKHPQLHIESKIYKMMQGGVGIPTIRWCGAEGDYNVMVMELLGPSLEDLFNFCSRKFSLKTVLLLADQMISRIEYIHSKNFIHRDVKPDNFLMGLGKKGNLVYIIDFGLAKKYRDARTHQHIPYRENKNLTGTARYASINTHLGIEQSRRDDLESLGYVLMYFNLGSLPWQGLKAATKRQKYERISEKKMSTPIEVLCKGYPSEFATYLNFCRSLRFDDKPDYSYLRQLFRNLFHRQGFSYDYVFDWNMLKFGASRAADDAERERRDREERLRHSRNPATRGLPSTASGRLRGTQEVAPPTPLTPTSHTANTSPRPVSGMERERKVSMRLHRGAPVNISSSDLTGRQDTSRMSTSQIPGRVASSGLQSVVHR
# Protocol: as §1
# MAP3K5 (ASK1) = target: T7, MAP3K5 (ASK1) (Homo sapiens, UniProt Q99683); assay: Kinase screening service: MAP3K5; type: biochemical; conditions: average of duplicates
# T7 construct: purchased Life Technologies Corporation (Kinase Screening Service)
# Protocol: as §1
# MAPK9 (JNK2) = target: T8, MAPK9 (JNK2) (Homo sapiens, UniProt P45984); assay: Kinase screening service (Life Technologies): JNK2; type: biochemical; conditions: average of duplicates
# T8 construct: purchased Life Technologies Corporation (kinase screening service)
# Protocol: (§2) The inhibitory effect of PT109 on SGK and INK was detected by the kinase screening commercialization service of Life Technologies Corporation.
# as §1
# HCK = target: T9, HCK (Homo sapiens, UniProt P08631); assay: Kinase screening service: HCK; type: biochemical; conditions: average of duplicates
# T9 construct: purchased Life Technologies Corporation (Kinase Screening Service)
# Protocol: as §1
# CSNK1G2 (CK1 gamma 2) = target: T10, CSNK1G2 (CK1 gamma 2) (Homo sapiens, UniProt P78368); assay: Kinase screening service: CSNK1G2; type: biochemical; conditions: average of duplicates
# T10 construct: purchased Life Technologies Corporation (Kinase Screening Service)
# Protocol: as §1
# SGK3 = target: T11, SGK3 (Homo sapiens, UniProt Q96BR1); assay: Kinase screening service (Life Technologies): SGK3; type: biochemical
# T11 construct: purchased Life Technologies Corporation (kinase screening service)
# From the text: as §2
# WNK2 = target: T12, WNK2 (Homo sapiens, UniProt Q9Y3S1); assay: Kinase screening service: WNK2; type: biochemical; conditions: average of duplicates
# T12 construct: purchased Life Technologies Corporation (Kinase Screening Service)
# Protocol: as §1
# SRMS (Srm) = target: T13, SRMS (Srm) (Homo sapiens, UniProt Q9H3Y6); assay: Kinase screening service: SRMS; type: biochemical; conditions: average of duplicates
# T13 construct: purchased Life Technologies Corporation (Kinase Screening Service)
# T13 sequence (Q9H3Y6 whole entry): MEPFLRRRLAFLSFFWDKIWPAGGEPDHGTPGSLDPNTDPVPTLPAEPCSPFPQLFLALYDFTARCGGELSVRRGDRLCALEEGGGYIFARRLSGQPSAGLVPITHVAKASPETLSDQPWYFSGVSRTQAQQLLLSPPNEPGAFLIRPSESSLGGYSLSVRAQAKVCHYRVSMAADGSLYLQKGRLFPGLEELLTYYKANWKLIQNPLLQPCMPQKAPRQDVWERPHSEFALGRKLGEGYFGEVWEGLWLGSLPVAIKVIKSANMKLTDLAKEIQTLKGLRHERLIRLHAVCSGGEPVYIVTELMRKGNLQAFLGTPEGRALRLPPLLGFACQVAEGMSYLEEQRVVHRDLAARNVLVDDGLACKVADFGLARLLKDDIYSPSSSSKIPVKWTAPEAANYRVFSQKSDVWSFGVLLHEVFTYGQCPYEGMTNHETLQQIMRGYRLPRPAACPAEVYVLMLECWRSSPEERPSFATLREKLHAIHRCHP
# Protocol: as §1
# GRK5 = target: T14, GRK5 (Homo sapiens, UniProt P34947); assay: Kinase screening service: GRK5; type: biochemical; conditions: average of duplicates
# T14 construct: purchased Life Technologies Corporation (Kinase Screening Service)
# Protocol: as §1
# FGFR1 = target: T15, FGFR1 (Homo sapiens, UniProt P11362); assay: Kinase screening service: FGFR1; type: biochemical; conditions: average of duplicates
# T15 construct: purchased Life Technologies Corporation (Kinase Screening Service)
# T15 sequence (P11362 22-822): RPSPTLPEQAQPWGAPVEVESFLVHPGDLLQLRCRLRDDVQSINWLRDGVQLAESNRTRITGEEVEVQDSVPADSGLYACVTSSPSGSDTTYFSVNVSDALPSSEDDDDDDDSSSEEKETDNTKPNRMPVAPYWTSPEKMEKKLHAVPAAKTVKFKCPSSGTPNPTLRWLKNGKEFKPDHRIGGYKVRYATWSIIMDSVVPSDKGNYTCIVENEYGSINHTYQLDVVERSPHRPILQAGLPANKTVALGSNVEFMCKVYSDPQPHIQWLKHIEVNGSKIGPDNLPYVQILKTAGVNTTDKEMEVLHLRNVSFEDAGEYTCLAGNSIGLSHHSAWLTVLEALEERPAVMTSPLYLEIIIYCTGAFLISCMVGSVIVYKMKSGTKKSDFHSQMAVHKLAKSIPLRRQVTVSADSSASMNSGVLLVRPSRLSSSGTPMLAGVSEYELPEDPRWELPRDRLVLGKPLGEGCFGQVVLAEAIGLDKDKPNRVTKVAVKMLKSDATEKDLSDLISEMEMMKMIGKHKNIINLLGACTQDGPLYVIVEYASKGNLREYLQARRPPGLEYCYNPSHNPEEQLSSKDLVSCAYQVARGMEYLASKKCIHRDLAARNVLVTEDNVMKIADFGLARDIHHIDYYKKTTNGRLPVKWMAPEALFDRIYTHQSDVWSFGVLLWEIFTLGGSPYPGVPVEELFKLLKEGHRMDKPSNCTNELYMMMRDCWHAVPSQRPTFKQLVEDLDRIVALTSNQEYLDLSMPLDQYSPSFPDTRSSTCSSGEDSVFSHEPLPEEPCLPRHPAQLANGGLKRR
# Protocol: as §1
# CSNK1A1 (CK1 alpha 1) = target: T16, CSNK1A1 (CK1 alpha 1) (Homo sapiens, UniProt P48729); assay: Kinase screening service: CSNK1A1; type: biochemical; conditions: average of duplicates
# T16 construct: purchased Life Technologies Corporation (Kinase Screening Service)
# Protocol: as §1
# [1] = target: T17, MAP3K7/MAP3K7IP1 (TAK1-TAB1) (Homo sapiens, UniProt O43318); assay: Kinase screening service: MAP3K7/MAP3K7IP1; type: biochemical; conditions: average of duplicates
# T17 construct: purchased Life Technologies Corporation (Kinase Screening Service)
# Protocol: as §1
# NTRK1 (TRKA) = target: T18, NTRK1 (TRKA) (Homo sapiens, UniProt P04629); assay: Kinase screening service: NTRK1; type: biochemical; conditions: average of duplicates
# T18 construct: purchased Life Technologies Corporation (Kinase Screening Service)
# Protocol: as §1
# PIK3C3 (hVPS34) = target: T19, PIK3C3 (hVPS34) (Homo sapiens, UniProt Q8NEB9); assay: Kinase screening service: PIK3C3; type: biochemical; conditions: average of duplicates
# T19 construct: purchased Life Technologies Corporation (Kinase Screening Service)
# Protocol: as §1
# DYRK1A = target: T20, DYRK1A (Homo sapiens, UniProt Q13627); assay: Kinase screening service: DYRK1A; type: biochemical; conditions: average of duplicates
# T20 construct: purchased Life Technologies Corporation (Kinase Screening Service)
# Protocol: as §1
# CDK1/cyclin B = target: T21, CDK1/cyclin B (Homo sapiens, UniProt P06493); assay: Kinase screening service: CDK1/cyclin B; type: biochemical; conditions: average of duplicates
# T21 construct: purchased Life Technologies Corporation (Kinase Screening Service)
# Protocol: as §1
# ULK1 = target: T22, ULK1 (Homo sapiens, UniProt O75385); assay: Kinase screening service: ULK1; type: biochemical; conditions: average of duplicates
# T22 construct: purchased Life Technologies Corporation (Kinase Screening Service)
# T22 sequence (O75385 whole entry): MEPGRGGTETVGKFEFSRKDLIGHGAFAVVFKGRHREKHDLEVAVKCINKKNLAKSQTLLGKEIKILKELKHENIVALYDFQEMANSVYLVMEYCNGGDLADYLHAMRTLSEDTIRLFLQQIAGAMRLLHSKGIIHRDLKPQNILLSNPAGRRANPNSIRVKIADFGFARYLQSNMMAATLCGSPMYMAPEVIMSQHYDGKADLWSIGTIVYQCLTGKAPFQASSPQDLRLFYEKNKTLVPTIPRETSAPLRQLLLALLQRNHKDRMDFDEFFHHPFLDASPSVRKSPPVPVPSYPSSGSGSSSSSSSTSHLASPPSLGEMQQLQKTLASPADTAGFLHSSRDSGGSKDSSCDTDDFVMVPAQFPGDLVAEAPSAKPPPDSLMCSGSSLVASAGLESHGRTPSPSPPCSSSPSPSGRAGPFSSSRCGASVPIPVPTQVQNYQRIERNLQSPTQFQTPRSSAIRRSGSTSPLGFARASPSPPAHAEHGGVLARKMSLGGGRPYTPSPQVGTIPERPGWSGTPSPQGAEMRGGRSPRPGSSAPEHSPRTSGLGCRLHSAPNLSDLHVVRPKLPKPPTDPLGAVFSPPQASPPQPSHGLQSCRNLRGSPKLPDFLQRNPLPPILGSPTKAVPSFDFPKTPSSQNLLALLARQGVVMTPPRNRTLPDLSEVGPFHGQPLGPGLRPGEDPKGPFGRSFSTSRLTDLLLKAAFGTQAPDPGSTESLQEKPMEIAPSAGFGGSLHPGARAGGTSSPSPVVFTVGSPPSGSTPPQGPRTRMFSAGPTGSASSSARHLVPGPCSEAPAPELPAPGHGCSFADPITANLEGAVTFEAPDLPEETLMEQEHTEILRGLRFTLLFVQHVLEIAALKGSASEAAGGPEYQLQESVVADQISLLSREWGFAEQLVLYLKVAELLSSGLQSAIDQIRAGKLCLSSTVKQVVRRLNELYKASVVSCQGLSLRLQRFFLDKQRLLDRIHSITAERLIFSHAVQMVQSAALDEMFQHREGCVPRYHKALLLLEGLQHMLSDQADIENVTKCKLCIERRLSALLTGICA
# Protocol: as §1
# MAP3K9 (MLK1) = target: T23, MAP3K9 (MLK1) (Homo sapiens, UniProt P80192); assay: Kinase screening service: MAP3K9; type: biochemical; conditions: average of duplicates
# T23 construct: purchased Life Technologies Corporation (Kinase Screening Service)
# Protocol: as §1
# RPS6KA3 (RSK2) = target: T24, RPS6KA3 (RSK2) (Homo sapiens, UniProt P51812); assay: Kinase screening service: RPS6KA3; type: biochemical; conditions: average of duplicates
# T24 construct: purchased Life Technologies Corporation (Kinase Screening Service)
# Protocol: as §1
# SLK = target: T25, SLK (Homo sapiens, UniProt Q9H2G2); assay: Kinase screening service: SLK; type: biochemical; conditions: average of duplicates
# T25 construct: purchased Life Technologies Corporation (Kinase Screening Service)
# Protocol: as §1
# MYO3B (MYO3 beta) = target: T26, MYO3B (MYO3 beta) (Homo sapiens, UniProt Q8WXR4); assay: Kinase screening service: MYO3B; type: biochemical; conditions: average of duplicates
# T26 construct: purchased Life Technologies Corporation (Kinase Screening Service)
# T26 sequence (Q8WXR4 whole entry): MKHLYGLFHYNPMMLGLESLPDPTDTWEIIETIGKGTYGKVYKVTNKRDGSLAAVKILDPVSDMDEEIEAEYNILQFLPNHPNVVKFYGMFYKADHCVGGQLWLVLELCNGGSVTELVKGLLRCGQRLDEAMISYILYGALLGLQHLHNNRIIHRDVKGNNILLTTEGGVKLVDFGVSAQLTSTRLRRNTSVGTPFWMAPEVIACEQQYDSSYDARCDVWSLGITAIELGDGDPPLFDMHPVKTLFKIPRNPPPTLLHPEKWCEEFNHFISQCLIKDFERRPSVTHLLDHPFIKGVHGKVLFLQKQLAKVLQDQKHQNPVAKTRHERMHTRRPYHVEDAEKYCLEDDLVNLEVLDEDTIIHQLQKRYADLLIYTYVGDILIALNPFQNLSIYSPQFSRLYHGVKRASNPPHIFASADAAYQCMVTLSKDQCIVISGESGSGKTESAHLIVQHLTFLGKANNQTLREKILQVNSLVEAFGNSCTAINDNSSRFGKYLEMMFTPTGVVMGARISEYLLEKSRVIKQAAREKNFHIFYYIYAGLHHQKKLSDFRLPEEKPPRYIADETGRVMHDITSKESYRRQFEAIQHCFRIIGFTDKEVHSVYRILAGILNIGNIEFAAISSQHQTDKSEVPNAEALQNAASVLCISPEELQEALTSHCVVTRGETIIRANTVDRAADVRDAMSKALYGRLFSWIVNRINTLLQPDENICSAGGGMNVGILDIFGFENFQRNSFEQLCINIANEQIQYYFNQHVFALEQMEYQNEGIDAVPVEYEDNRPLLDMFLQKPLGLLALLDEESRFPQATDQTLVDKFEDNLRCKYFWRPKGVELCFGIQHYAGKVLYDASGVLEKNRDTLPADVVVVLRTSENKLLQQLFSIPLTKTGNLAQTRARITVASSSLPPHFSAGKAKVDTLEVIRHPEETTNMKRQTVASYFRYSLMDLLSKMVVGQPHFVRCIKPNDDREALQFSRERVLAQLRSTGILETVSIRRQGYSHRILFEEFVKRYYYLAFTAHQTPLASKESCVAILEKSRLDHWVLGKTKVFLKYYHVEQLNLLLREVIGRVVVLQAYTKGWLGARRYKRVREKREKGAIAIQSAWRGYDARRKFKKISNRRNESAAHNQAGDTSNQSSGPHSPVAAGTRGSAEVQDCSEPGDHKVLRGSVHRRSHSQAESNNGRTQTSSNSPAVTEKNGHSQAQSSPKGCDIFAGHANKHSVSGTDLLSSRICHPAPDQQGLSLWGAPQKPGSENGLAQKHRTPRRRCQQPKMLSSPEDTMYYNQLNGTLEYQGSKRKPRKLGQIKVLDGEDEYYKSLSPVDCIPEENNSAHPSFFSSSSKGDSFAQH
# Protocol: as §1
# NEK4 = target: T27, NEK4 (Homo sapiens, UniProt P51957); assay: Kinase screening service: NEK4; type: biochemical; conditions: average of duplicates
# T27 construct: purchased Life Technologies Corporation (Kinase Screening Service)
# Protocol: as §1
# [2] = In vitro blood-brain barrier permeability (PBL artificial membrane); type: in vitro ADME
# Protocol: 1) 4 μL of 2% PBL solution was added to the hydrophobic membrane of a MAIPn 4550 96-well plate. During the dripping process, it should be noted that the pipette tip should not touch the surface of the membrane to avoid the damage to the membrane structure.
# 2) 200 μL of the test sample solution (0.1 mg/ml) was quickly (within 10 min) and quantitatively pipetted, and added to the upside of the membrane of the 96-well plate as a donor compartment. 200 μL of PBS (pH=7.4) was added to the other side of the membrane as an acceptor compartment. It should be noted that the acceptor solution should keep being in full contact with the membrane.
# 3) The donor compartment was carefully removed upon standing for 120 min at room temperature, and the absorbance of the compound (250-500 nm) in the acceptor compartment was tested by UV spectrometer.
# 4) 100 μL of the test sample solution was fully mixed with 100 μL of PBS, and the mixture was used as a theoretical equilibrium solution. Its absorbance (250-500 nm) was measured and tested with an acceptor plate.
# 5) The log Pe value was calculated by the following equation: […]
# wherein Vd is the volume of the donor compartment, Va is the volume of the acceptor compartment, A is the membrane area, t is the penetration time, [drug]acceptor is the absorbance of the acceptor compartment, and [drug]equilibrium is the absorbance of theoretical equilibrium. […]
# MST1R (RON) = target: T28, MST1R (RON) (Homo sapiens, UniProt Q04912); assay: Kinase screening service: MST1R; type: biochemical; conditions: average of duplicates
# T28 construct: purchased Life Technologies Corporation (Kinase Screening Service)
# Protocol: as §1
structure (smiles),measurement,setting,value
"O=C(CCCCC1CCSS1)NC1CCC(Nc2cccc3cnccc23)CC1 (stereo not drawn) [PT109, 5-(1,2-dithiolan-3-yl)-N-(4-(isoquinolin-5-ylamino)cyclohexyl) pentanamide]",inhibition at 10 µM,TLK1,20%
same,inhibition at 10 µM,CDK5/p35,26%
same,inhibition at 10 µM,PRKCI (PKC iota),-14%
same,inhibition at 10 µM,PI4KB (PI4K beta),39%
same,inhibition at 10 µM,HIPK1 (Myak),0%
same,inhibition at 10 µM,CSNK1D (CK1 delta),6%
same,inhibition at 10 µM,MAP3K5 (ASK1),9%
same,inhibition at 10 µM,MAPK9 (JNK2),91%
same,inhibition at 10 µM,HCK,9%
same,inhibition at 10 µM,CSNK1G2 (CK1 gamma 2),15%
same,IC50,SGK3,26.4 µM
same,inhibition at 10 µM,WNK2,13%
same,inhibition at 10 µM,SRMS (Srm),20%
same,inhibition at 10 µM,GRK5,2%
same,inhibition at 10 µM,FGFR1,-3%
same,inhibition at 10 µM,CSNK1A1 (CK1 alpha 1),3%
same,inhibition at 10 µM,[1],39%
same,inhibition at 10 µM,NTRK1 (TRKA),35%
same,inhibition at 10 µM,PIK3C3 (hVPS34),11%
same,inhibition at 10 µM,DYRK1A,16%
same,inhibition at 10 µM,CDK1/cyclin B,14%
same,inhibition at 10 µM,ULK1,26%
same,inhibition at 10 µM,MAP3K9 (MLK1),2%
same,inhibition at 10 µM,RPS6KA3 (RSK2),54%
same,inhibition at 10 µM,SLK,5%
same,inhibition at 10 µM,MYO3B (MYO3 beta),43%
same,inhibition at 10 µM,NEK4,3%
same,"Papp at 120 min, 0.1 mg/ml","[2]; PAMPA, PBL membrane, PBS pH=7.4, 120 min, room temperature, read-out: Pe",11.93 ± 0.08 ×10⁻⁶ cm/s
same,Prediction,[2]; from Pe,"CNS+ (If Pe×10^−6 cm s^−1 value is greater than 5.3, the compound is able to cross the blood-brain barrier)"
same,inhibition at 10 µM,MST1R (RON),35%
